Laboratory results published in patent publication US20150005262A1, “HYPOXIA ACTIVATED PRODRUGS AND MTOR INHIBITORS FOR TREATING CANCER” (THRESHOLD PHARMACEUTICALS, INC., priority 2011, published 2015).
pIC50: −log10 of the molar value. Entries after “also recorded” stand apart in the source; their conditions may differ.

How the values were obtained:
SK-N-BE(2) cells = assay: SK-N-BE(2) ectopic neuroblastoma model, TH-302 with everolimus; assay type: in vivo; conditions: SK-N-BE(2) model; everolimus 5 mg/kg QD×19 oral; TH-302 50 mg/kg QD×5/week×3 weeks i.p.
Ki67, CD31, p-S6 = assay: Pharmacodynamic study using immunohistochemistry of tumor tissue; assay type: in vivo, nude mice; conditions: after 7 days treatment of everolimus
[1] = system: 786-0 RCC xenograft tumors; assay: Tumor hypoxia (pimonidazole, morphometric analysis) in 786-0 xenograft; assay type: in vivo, nude mice; conditions: for tumor hypoxic fraction: everolimus 5 mg/kg oral QD×8, TH-302 150 mg/kg i.p., sampled 72 hr after TH-302
786-0 cells [2] = assay: 786-0 RCC ectopic xenograft, TH-302 with everolimus; assay type: in vivo, nude mice; conditions: 786-0 model; everolimus 5 mg/kg QD×19 p.o.; TH-302 50 mg/kg QD×5/week×3 weeks i.p.; both started day 1
mTOR = mTOR (Homo sapiens, UniProt P42345); conditions: cited from earlier work
Caki-1 cells [3] = assay: Caki-1 RCC ectopic xenograft, TH-302 with everolimus; assay type: in vivo, nude mice; conditions: Caki-1 model; everolimus 5 mg/kg QD×19 p.o.; TH-302 50 mg/kg QD×5/week×3 weeks i.p.; both started day 1
NCI-60 cell lines panel = conditions: cited from earlier work
[4] = system: Caki-1 RCC xenograft tumors; assay: Tumor hypoxia (pimonidazole, morphometric analysis) in Caki-1 xenograft; assay type: in vivo, nude mice; conditions: for tumor hypoxic fraction: temsirolimus 20 mg/kg i.p. QD×8, TH-302 150 mg/kg i.p., sampled 72 hr after TH-302; for change of tumor hypoxia (in words): vs vehicle, combination vs mTOR inhibitor alone
Procedure: Nude mice bearing 786-0 or Caki-1 RCC xenograft tumors were randomized into 4 groups (6-8 mice/group): vehicle, mTOR inhibitor, TH-302 monotherapy, and TH-302 in combination with mTOR inhibitor, respectively. In the mTOR inhibitor monotherapy group, animals were dosed with a QD×8 regimen, and tumors were sampled 4 hr after the last treatment. In the TH-302 monotherapy group, 150 mg/kg was administered intraperitoneally to the animals, and the tumors were sampled 72 hr after the TH-302 treatment. In the combination therapy group, TH-302 was administered 4 hr after the last dose of mTOR inhibitor (QD×8, oral), and the tumors were sampled 72 hr later. Pimonidazole was administered 1 hr before euthanization (tumors were sampled on euthanization).
A dose of 20 mg/kg of temsirolimus was administered intraperitoneally in the Caki-1 xenograft model. […] After temsirolimus treatment, the tumor hypoxic fraction was 12.8±0.7%, as compared to 7.5±1.9% in vehicle treated group (p<0.05). The tumor hypoxic fraction in the TH-302 monotherapy group was 4.3±0.7%.

Caki-1 cells [5] = assay: Caki-1 RCC ectopic xenograft, TH-302 with temsirolimus; assay type: in vivo, nude mice; conditions: Caki-1 model, temsirolimus 20 mg/kg QD×19 i.p.
Text: (§1) In one combination therapy group, the temsirolimus and TH-302 administration both began on day 1; in the other combination therapy group, the TH-302 administration was initiated on day 8 after the first temsirolimus administration. Thus, two TH-302 monotherapy groups served as comparison groups (one group starting on day 1 and the other starting on day 8). […] The weight returned to normal when treatment stopped.

786-0 cells [6] = assay: 786-0 RCC ectopic xenograft, TH-302 with temsirolimus; assay type: in vivo, nude mice; conditions: 786-0 model; temsirolimus 20 mg/kg QD×19 i.p.; TH-302 50 mg/kg QD×5/week×2 to 3 weeks i.p.; combination range covers day 1 and day 8 schedules
Text: as §1

DNA-PK = DNA-PK (Homo sapiens, UniProt P78527); conditions: cited from earlier work
PI3K = conditions: read-out: IC50 for PI3-K; cited from earlier work

DNA-PK, sequence (P78527 whole entry): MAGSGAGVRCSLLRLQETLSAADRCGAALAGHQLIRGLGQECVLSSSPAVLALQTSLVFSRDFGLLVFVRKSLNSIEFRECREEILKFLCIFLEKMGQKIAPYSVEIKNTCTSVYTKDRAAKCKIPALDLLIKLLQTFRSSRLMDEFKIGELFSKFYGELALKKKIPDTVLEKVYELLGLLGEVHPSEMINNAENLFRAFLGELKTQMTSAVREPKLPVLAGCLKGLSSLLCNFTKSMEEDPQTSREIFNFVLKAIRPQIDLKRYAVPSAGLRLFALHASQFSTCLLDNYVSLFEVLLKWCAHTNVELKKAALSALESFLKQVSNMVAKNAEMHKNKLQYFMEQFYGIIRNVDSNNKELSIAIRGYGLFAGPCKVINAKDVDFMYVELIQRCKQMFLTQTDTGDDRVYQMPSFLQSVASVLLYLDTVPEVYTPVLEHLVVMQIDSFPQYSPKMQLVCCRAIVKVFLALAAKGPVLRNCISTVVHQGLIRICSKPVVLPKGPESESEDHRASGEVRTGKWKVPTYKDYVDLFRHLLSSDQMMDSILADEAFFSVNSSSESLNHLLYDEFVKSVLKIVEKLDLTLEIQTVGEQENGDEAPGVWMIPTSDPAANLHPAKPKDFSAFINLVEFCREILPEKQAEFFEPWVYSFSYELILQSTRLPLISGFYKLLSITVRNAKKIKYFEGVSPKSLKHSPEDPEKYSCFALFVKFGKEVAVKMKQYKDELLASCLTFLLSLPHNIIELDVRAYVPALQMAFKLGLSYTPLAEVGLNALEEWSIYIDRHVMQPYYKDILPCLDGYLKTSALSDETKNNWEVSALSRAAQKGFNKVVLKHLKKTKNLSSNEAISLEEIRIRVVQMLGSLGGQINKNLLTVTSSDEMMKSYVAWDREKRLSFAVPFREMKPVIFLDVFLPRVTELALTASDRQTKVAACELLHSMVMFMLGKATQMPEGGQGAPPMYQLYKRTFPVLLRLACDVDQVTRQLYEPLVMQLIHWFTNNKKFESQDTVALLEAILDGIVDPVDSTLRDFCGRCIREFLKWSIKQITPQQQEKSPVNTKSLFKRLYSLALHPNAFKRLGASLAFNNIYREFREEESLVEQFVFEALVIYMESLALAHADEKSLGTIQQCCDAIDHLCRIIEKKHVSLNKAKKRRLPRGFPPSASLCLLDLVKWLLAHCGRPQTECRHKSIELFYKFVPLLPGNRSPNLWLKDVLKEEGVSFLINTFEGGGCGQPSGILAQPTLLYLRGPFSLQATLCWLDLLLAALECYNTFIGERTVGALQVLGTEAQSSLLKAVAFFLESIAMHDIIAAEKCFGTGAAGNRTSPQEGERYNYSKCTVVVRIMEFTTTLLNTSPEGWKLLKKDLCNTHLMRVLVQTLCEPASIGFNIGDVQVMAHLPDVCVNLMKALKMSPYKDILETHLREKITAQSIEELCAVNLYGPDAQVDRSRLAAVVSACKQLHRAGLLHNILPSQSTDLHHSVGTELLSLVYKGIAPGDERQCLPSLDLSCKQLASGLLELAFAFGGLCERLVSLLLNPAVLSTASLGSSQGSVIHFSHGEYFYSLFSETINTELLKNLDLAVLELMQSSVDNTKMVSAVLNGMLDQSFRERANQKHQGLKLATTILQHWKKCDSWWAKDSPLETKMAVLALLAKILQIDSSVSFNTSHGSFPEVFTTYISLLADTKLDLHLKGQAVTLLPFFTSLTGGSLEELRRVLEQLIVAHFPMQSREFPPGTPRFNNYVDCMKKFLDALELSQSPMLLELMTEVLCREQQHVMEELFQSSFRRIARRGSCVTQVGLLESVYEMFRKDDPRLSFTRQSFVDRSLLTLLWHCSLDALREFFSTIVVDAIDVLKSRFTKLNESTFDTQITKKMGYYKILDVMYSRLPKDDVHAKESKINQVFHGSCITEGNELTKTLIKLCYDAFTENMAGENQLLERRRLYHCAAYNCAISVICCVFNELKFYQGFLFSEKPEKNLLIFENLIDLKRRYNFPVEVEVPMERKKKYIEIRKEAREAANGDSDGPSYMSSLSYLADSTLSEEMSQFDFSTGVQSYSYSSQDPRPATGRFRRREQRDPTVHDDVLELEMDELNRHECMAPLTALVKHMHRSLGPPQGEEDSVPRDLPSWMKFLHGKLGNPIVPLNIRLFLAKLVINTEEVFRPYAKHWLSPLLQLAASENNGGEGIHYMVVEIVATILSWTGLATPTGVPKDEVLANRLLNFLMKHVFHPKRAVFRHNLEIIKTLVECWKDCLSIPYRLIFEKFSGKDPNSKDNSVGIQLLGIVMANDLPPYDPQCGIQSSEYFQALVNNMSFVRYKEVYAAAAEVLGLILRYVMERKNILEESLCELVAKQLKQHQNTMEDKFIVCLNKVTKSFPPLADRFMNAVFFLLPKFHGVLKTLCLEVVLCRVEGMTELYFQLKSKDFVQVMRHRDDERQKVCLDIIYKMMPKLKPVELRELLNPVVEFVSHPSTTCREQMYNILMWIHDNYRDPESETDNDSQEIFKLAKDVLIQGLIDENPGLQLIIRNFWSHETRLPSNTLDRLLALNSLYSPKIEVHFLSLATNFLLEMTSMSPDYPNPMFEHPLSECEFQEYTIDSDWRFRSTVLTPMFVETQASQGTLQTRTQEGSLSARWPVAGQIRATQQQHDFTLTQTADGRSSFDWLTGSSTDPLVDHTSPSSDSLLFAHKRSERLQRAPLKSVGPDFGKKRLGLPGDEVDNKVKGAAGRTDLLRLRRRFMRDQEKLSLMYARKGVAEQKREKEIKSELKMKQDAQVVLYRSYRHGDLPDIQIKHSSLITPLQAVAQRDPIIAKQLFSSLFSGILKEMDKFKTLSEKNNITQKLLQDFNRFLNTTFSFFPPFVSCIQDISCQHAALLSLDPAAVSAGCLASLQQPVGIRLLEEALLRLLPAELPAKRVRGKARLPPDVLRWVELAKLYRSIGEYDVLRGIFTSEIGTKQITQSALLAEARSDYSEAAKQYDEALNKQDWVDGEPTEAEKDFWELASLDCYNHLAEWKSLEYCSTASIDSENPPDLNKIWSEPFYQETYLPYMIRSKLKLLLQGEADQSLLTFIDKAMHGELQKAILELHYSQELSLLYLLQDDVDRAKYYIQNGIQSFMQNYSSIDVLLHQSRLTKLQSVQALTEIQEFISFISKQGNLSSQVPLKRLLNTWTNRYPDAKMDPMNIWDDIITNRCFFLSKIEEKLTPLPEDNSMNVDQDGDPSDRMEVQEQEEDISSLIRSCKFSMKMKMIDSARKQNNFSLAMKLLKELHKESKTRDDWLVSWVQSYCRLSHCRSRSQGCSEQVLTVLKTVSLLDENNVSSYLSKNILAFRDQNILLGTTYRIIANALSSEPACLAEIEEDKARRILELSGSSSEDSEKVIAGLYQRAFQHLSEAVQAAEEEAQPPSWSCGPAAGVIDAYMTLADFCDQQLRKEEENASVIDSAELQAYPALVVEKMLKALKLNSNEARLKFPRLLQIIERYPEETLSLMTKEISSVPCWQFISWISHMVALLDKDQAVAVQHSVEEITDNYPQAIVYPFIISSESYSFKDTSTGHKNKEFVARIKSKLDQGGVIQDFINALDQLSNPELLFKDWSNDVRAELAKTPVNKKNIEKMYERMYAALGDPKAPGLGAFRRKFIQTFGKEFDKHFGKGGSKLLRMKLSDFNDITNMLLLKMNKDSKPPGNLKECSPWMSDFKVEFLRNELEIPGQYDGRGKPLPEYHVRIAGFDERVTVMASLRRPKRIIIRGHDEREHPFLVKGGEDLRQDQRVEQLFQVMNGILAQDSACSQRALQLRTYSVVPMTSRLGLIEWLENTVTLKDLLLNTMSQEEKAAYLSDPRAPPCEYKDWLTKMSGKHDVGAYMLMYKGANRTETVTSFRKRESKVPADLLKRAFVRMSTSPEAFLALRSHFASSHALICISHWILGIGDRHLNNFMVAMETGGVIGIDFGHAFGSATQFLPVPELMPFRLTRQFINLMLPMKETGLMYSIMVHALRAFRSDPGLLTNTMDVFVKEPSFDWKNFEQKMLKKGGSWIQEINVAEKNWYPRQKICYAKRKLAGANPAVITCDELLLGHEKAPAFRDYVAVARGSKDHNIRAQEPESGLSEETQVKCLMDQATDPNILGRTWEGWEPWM

## CO[C@H]1C[C@@H]2CC[C@@H](C)[C@@](O)(O2)C(=O)C(=O)N2CCCC[C@H]2C(=O)O[C@H]([C@H](C)C[C@@H]2CC[C@@H](OCCO)[C@H](OC)C2)CC(=O)[C@H](C)/C=C(\C)[C@@H](O)[C@@H](OC)C(=O)[C@H](C)C[C@H](C)/C=C/C=C/C=C/1C [everolimus]
SK-N-BE(2) cells
  tumor growth inhibition (TGI): 40%
Ki67, CD31, p-S6
  cell proliferation (expression of nuclear antigen Ki67): significantly decreased
  microvessel density (angiogenic marker CD31): significantly decreased
  phosphorylation of the S6 ribosomal protein (p-S6): significantly decreased
[1]
  tumor hypoxic fraction: 6.3±1.5%
[1]; vs vehicle, combination vs mTOR inhibitor alone
  change of tumor hypoxia (in words): increased hypoxia in the tumor; also recorded: significantly increases tumor hypoxia
786-0 cells [2]
  tumor growth inhibition (TGI): 49%
mTOR
  pIC50: 9.22
Caki-1 cells [3]
  tumor growth inhibition (TGI): 52%

## COc1ccc(COc2cc3oc(=O)c4cc(C(C)O)ccc4c3cc2OC)cc1 (stereo not drawn) [Palomid 529]
NCI-60 cell lines panel
  GI50: < 35000 nM

## Cn1c(COP(=O)(NCCBr)NCCBr)cnc1[N+](=O)[O-] [TH-302]
SK-N-BE(2) cells
  tumor growth inhibition (TGI): 45%
[4]
  tumor hypoxic fraction: 4.3±0.7%
  change of tumor hypoxia (in words): reduces the size of the hypoxic region
Caki-1 cells [5]; TH-302 50 mg/kg i.p. starting on day 1
  tumor growth inhibition (TGI): 79%
Caki-1 cells [5]; TH-302 50 mg/kg i.p. starting on day 8
  tumor growth inhibition (TGI): 89%
[1]
  tumor hypoxic fraction: 3.7±1.2%
786-0 cells [2]
  tumor growth inhibition (TGI): did not demonstrate statistically significant efficacy; also recorded: did not demonstrate statistically significant TGI
Caki-1 cells [3]
  tumor growth inhibition (TGI): 57%

## CO[C@H]1C[C@@H]2CC[C@@H](C)[C@@](O)(O2)C(=O)C(=O)N2CCCC[C@H]2C(=O)O[C@H]([C@H](C)C[C@@H]2CC[C@@H](OC(=O)C(C)(CO)CO)[C@H](OC)C2)CC(=O)[C@H](C)/C=C(\C)[C@@H](O)[C@@H](OC)C(=O)[C@H](C)C[C@H](C)/C=C/C=C/C=C/1C [temsirolimus]
[4]
  tumor hypoxic fraction: 12.8±0.7%
  change of tumor hypoxia (in words): significant increase of tumor hypoxia; also recorded: significantly increases tumor hypoxia
786-0 cells [6]
  tumor growth inhibition (TGI): 113%

## COC(=O)Nc1ccc(-c2nc(N3CCOCC3)c3cnn(C4CCN(C(=O)OC)CC4)c3n2)cc1 [WYE-354]
mTOR
  pIC50: 8.30

## CNC(=O)Nc1ccc(-c2nc(N3CC4CCC(C3)O4)c3cnn(C4CCC5(CC4)OCCO5)c3n2)cc1 [WYE-125132]
mTOR
  pIC50: 9.72

## c1cncc(CN2CCC(n3ncc4c(N5CCOCC5)nc(-c5ccc6[nH]ccc6c5)nc43)CC2)c1 [WAY-600]
mTOR
  pIC50: 8.05

## O=c1cc(N2CCOCC2)oc2c(-c3cccc4c3sc3ccccc34)cccc12 [NU7441]
DNA-PK
  pIC50: 8.00
mTOR
  pIC50: 5.77
PI3K
  pIC50: 5.30
